Experimental data published in US7223733B2, “Modulation of TRIP-Br function and method of treating proliferative disorders” (National University of Singapore, priority 2004, dated 2007).
Where no end group is shown, it is not given here.

What was measured:
Type in all cases: cell-based, human
Fbxw7 mRNA = test: Semi-quantitative RT-PCR of Fbxw7 in U2OS cells; conditions: U2OS, 5, 10 or 20 μM
Experimental: Semi-quantitative RT-PCR. Total RNA was isolated from U2OS cells or U2OS-ER-E2F-1 cells (grown with or without 1.0 μM OHT and/or 10 μg/ml cycloheximide) using the TRIZOL® Reagent (Life Technologies). Total RNA (4 μg) was reverse transcribed using oligo-dT and M-MLV reverse transcriptase in a total reaction volume of 20 μl. Polymerase Chain Reactions (PCR) were carried out on 3 μl cDNA samples in the presence of […] deoxyribonucleotide triphosphates (dNTPs) and 40 μM of specific primer pairs in a total reaction volume of 50 μ. The cycling profile for PCR was as follow: 30 cycles of denaturation (94° C., 30 sec), annealing (51° C., 30 sec) and extension (72° C., 2 min), with a 2-minute initial denaturation step at 94° C. and a 10-minute terminal polishing step at 72° C. Sequences of gene-specific primers are available upon request. PCR amplification products were analyzed by agarose gel electrophoresis.
FIG. 8: The role(s) of the TRIP-Br integrator function in cyclin E regulation. […] U2OS cells exposed to 5, 10 or 20 μM of decoy peptides were analyzed for Fbxw7 mRNA transcript levels by semi-quantitative RT-PCR. H-actin was co-amplified as an internal control; (C) cyclin-E and Fbxw7 expression was analyzed by semi-quantitative RT-PCR using total RNA from sub-confluent U2OS ER-E2F-1 cells grown with or without OHT and/or cycloheximide (CHX) for 2 h as indicated. […]

[1] = tested on: E2F-responsive luciferase reporter (pGL3-TATA-6xE2F-Luc); test: E2F-responsive luciferase reporter assay in U2OS cells; conditions: 50 μM, 5 h
Experimental: DNA Transfection and Sequential β-Galactosidase/Luciferase Assay. For luciferase reporter assays, U2OS cells were cultured in 6-well dishes and transfected 24 h later with various reporter plasmids by the calcium precipitation method as previously described (Martin, K., et al. Nature 375, 691-694 (1995)). 24 h following precipitate removal, cells were exposed for 5 h to either vehicle (0.5% DMSO) or 50 μM of decoy peptide, prior to harvesting. Cells were scraped in 200 μl of lysis buffer and a single 10 μl aliquot of lysate was immediately used for sequential measurement of β-galactosidase and luciferase activity using the Dual Light System (Tropix). For protein overexpression experiments, U2OS cells were cultured in 6-well plates at a density of 1×10^5 cells/well and transfected 24 h later with Superfect reagent (QIAGEN).
FIG. 3: Analysis of E2F-responsive transcription in U2OS cells in response to decoy peptide treatment. […] Values represent the average +/− standard deviation of at least two independent experiments; (B) Semi-quantitative RT-PCR analysis on total RNA for dhfr, cyclin-E, cyclin A2, PCNA, DNA Pola and cdc2 expression in U2OS cells exposed for 16 h to either vehicle (0.5% DMSO) or 50 μM of the indicated decoy peptides. […]

Geminin = test: Protein decay analysis of Geminin in U2OS cells (cycloheximide); conditions: for Geminin steady state levels at 5-h post-CHX treatment: cycloheximide; for Geminin protein decay kinetics: cycloheximide 20 μg/ml, 0-5 h
Experimental: Protein decay analysis. Transfected or peptide-treated cells were exposed to 20 μg/ml cycloheximide (CHX). Whole cell lysates were prepared from the treated cells at 0, 1, 2, 3, 4 or 5-h post-CHX treatment for Western blot analysis. FIG. 7: Cell cycle protein expression profile and protein decay analysis. (A) Protein expression profile of U2OS cells released from nocodazole arrest in the absence or presence of decoy peptide treatment. Protein expression of various cyclins and Cdks was assessed by Western blotting using whole cell lysates from synchronized U2OS cells at 4, 8, 12, 16, 20 and 24 h after release. Coomassie-stained proteins served as loading controls; (B) U2OS cells transfected with vector backbone (vehicle) or pRc/cyclin E and pCMV/Cdk2 (1 μg each), were arrested at the G2/M boundary by exposure to nocodazole (75 ng/ml) and then released to re-enter the cell cycle. Protein expression of cyclin E and Geminin was assessed using whole cell lysates from synchronized U2OS cells at 0, 4, 8, 12, 16 and 20 h after release; (C) Protein decay analysis of Geminin expression in the absence or presence of cyclin E/Cdk2 over-expression (left panel) or in the absence or presence of decoy peptide treatment (right panel) by Western blotting (WB). Coomassie stained proteins served as the loading control (C).

[2] = tested on: CNE2 (nasal pharyngeal carcinoma); test: Anti-proliferative phenotypes in CNE2 cells; conditions: data not shown

Sequence | expression level of Fbxw7 mRNA (Fbxw7 mRNA) | transcriptional activity of the E2F-responsive luciferase reporter [1] | Geminin steady state levels at 5-h post-CHX treatment (Geminin) | Geminin protein decay kinetics (Geminin) | response of CNE2 cells [2]
ERQIKIWFQNRRMKWKKTGFLTDLTLDDILFADID (ERQIKIWFQNRRMKWKKTGFLTDLTLDDILFADID-NH2) [*Br2] | down-regulated the expression level of Fbxw7 in a dose-dependent fashion | decreased the transcriptional activity | remained persistently high | significantly slower decay rate | in manners similar to those exhibited by U2OS cells
ERQIKIWFQNRRMKWKKATGCLLDDGLEGLFEDID (ERQIKIWFQNRRMKWKKATGCLLDDGLEGLFEDID-NH2) [*Br1] | down-regulated the expression level of Fbxw7 in a dose-dependent fashion | decreased the transcriptional activity | remained persistently high | significantly slower decay rate | in manners similar to those exhibited by U2OS cells
